# According to PubChem BioAssay (NCI):
#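 Values below derive from 48-hour exposures of cells grown in 96-well plates, with endpoints linearly interpolated between the two concentrations bracketing the appropriate inhibition level. The concentration for 50% growth inhibition is given as GI50. TGI: total growth inhibition.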
# What was measured:
# Assay in all cases: DTP human tumour cell line panel, 48 h
# [1] = tested on: SF-295 CNS
# [2] = tested on: HCT-15 colon
# [3] = tested on: CAKI-1 renal
# [4] = tested on: SW-620 colon
# [5] = tested on: NCI-H23 lung
# [6] = tested on: UACC-257 melanoma
# [7] = tested on: SN12C renal
# [8] = tested on: HCC-2998 colon
# [9] = tested on: HT29 colon
# [10] = tested on: SF-268 CNS
Compound,GI50 [1] [µM],TGI [1] [µM],GI50 [2] [µM],TGI [2] [µM],GI50 [3] [µM],TGI [3] [µM],GI50 [4] [µM],TGI [4] [µM],GI50 [5] [µM],TGI [5] [µM],GI50 [6] [µM],TGI [6] [µM],GI50 [7] [µM],TGI [7] [µM],GI50 [8] [µM],TGI [8] [µM],GI50 [9] [µM],TGI [9] [µM],GI50 [10] [µM],TGI [10] [µM]
O=C1NC(=NCC(CO)c2ccccc2)S/C1=C\c1ccc2ncccc2c1 (stereo unspecified),> 25,> 25,> 21.8,> 25,> 25,> 25,7.74,> 25,12.1,> 25,> 25,> 25,17.6,> 25,24.6,> 25,19.7,> 25,> 16.9,> 25
CCCc1cc(=O)oc2c(C(=O)CC(C)C)c(O)c(CC=C(C)C)c(O)c12,7.81,31.3,5.81,> 50,8.38,33.9,14.9,> 50,4.05,45.8,5.89,29.9,8.84,> 50,4.87,> 50,15.1,> 50,11.2,> 50
O=C(CCCn1c2c(sc3ncccc32)c(=O)n2nnc(-c3ccccc3)c12)NCCc1cnc[nH]1,1.75,16.3,5.8,> 100,2.89,14.4,0.331,14.4,14.5,32.2,18.3,35.6,0.331,13.4,2.03,29.9,3.89,54.9,11.7,29.1
CCOP(=O)(CCP(=O)(OCC)OCC)OCC.C[CH2][Sn]([Cl])([Cl])[CH2]C,> 81.8,> 100,51.2,> 78.7,13.9,35,21.2,42.1,19.9,49,28.5,59.3,48.1,> 69.8,> 69.4,> 100,62.7,> 93.6,38.8,> 66.8
CCSC1(SCC)CCN(C=NC(C)(C)C)C1,–,> 100,–,> 100,–,> 100,–,53.2,–,> 100,–,> 100,–,> 100,–,> 100,–,> 100,–,> 100
c1cncc(CNc2ccccc2-c2nnc(Nc3ccc4c(c3)OCO4)o2)c1,0.0528,> 100,0.0578,> 100,0.0551,> 100,0.0413,> 100,0.0662,> 100,0.432,60.4,0.0994,> 100,0.113,–,0.037,1.27,0.407,> 100
Nc1nc(-c2ccccc2)c(-c2ccccc2)c(-c2nc(N)nc(-c3ccccc3)c2-c2ccccc2)n1,–,> 100,–,> 100,–,> 100,–,> 100,–,> 100,–,> 100,–,> 100,–,> 100,–,> 100,–,> 100
O=C(CCc1nnc2s/c(=C\c3ccccc3)c(=O)n12)Nc1cc(Cl)ccc1Cl,–,> 100,–,> 100,–,> 100,–,23.7,–,> 100,–,> 100,–,> 100,–,> 100,–,> 100,–,> 100
Cc1ccc(SSCCCS(=O)O)cc1,–,> 100,–,> 100,–,> 100,–,> 100,–,> 100,–,> 100,–,> 100,–,> 100,–,> 100,–,48.2
C=CCN1C(=O)/C(=c2\sc3n(c2=O)C2C(NN=3)N(CC)C(=O)N2CC)c2ccccc21 (stereo unspecified),0.455,> 33.7,0.451,> 100,0.474,> 100,0.423,> 100,0.88,> 50.7,–,> 100,0.7,> 100,1.28,> 100,0.39,–,1.26,> 100
CCc1cccc(C(C)CC)c1N=C(NC(=O)c1ccccc1C(=O)NC(=Nc1c(CC)cccc1C(C)CC)SC)SC (stereo unspecified),–,> 100,–,> 100,–,> 100,–,> 100,–,> 100,–,> 100,–,> 100,–,> 100,–,> 100,–,> 100
O=C1Cc2cc(CCn3ccnc3)c(Cl)cc2N1,7.87,> 100,7.07,> 100,6.32,> 100,5.02,> 100,40.8,> 100,5.65,> 100,16.5,> 100,32.2,> 100,> 100,> 100,11.2,> 100
CCN1CCC[C@H]1c1cc(O)c2c(c1OC)C[C@H]1C[C@H]3[C@H](N)C(=O)C(C(N)=O)=C(O)[C@@]3(O)C(=O)C1=C2O,0.208,3.8,0.0547,5.17,0.0293,0.62,0.0536,3.24,0.167,2.18,0.126,2.11,0.0682,1.5,0.118,3.01,0.112,5.43,0.0709,5.25
OC(c1ccccc1)(c1ccccc1)c1ccccn1,–,> 100,–,> 100,–,> 100,–,> 100,–,> 100,–,> 100,–,> 100,–,> 100,–,> 100,–,> 100
O=C(c1cc(=O)c2ccc(O)cc2o1)c1ccc(Cl)cc1Cl,–,> 65.9,–,> 100,–,> 100,–,> 54.6,–,> 73.3,–,> 71.9,–,72.1,–,58.8,–,> 100,–,> 100
O=c1[nH]c(=S)[nH]c2c1sc(=S)n2-c1ccccc1,–,> 100,–,> 100,–,> 100,–,> 100,–,> 100,–,> 100,–,> 100,–,> 100,–,> 100,–,> 100
Nc1ccc2c(c1)C(=O)c1ccc(F)cc1-2,–,> 100,–,> 100,–,> 100,–,> 100,–,> 100,–,> 100,–,> 100,–,> 100,–,> 100,–,> 100
O=C(Oc1cccnc1)c1ccccc1Nc1ccnc(C(F)(F)F)c1,0.257,0.707,0.121,> 100,0.0525,46.9,0.0498,> 100,0.049,1.83,35.7,> 100,0.17,> 94.8,0.363,15.1,0.0487,–,0.333,14.4
CC(=O)CC(=O)CCCC(=O)Nc1ccc(Cl)cc1C,–,> 100,–,> 100,–,> 100,–,> 100,–,> 100,–,> 100,–,> 100,–,> 100,–,> 100,–,> 100
CN(C)CC(C(=O)c1ccccc1)c1ccccc1 (stereo unspecified),4.52,18.2,1.11,2.54,0.966,2.67,0.396,1.57,2.95,12.7,1.99,5.81,1.57,3.35,4.86,16.4,0.662,2.15,3.26,10.8
CC(C)=CC/C=C(/C)[C@H]1CC[C@]2(C)[C@@H]1CC[C@@H]1[C@@]3(C)CCC(=O)NC(C)(C)[C@@H]3CC[C@]12C,18.7,36.6,15.4,32.1,19.6,40.3,20.2,43.9,18.3,45.7,31.7,> 100,16.1,33.8,20.2,35.8,20.4,72.3,17.2,34.6
